The results in this text go back to patent US20100105655A1, “NOVEL COMPOUNDS 515” (ASTRAZENECA AB, priority 2008, published 2010).

The structures appear in SMILES notation.

As a reminder, the IC50 is the point on the concentration scale where inhibition reaches its midpoint.

In the experiment the target is T1, IGFR kinase (Homo sapiens, UniProt P08069).
T1 construct: purchased Millipore
T1 sequence (P08069 31-1367): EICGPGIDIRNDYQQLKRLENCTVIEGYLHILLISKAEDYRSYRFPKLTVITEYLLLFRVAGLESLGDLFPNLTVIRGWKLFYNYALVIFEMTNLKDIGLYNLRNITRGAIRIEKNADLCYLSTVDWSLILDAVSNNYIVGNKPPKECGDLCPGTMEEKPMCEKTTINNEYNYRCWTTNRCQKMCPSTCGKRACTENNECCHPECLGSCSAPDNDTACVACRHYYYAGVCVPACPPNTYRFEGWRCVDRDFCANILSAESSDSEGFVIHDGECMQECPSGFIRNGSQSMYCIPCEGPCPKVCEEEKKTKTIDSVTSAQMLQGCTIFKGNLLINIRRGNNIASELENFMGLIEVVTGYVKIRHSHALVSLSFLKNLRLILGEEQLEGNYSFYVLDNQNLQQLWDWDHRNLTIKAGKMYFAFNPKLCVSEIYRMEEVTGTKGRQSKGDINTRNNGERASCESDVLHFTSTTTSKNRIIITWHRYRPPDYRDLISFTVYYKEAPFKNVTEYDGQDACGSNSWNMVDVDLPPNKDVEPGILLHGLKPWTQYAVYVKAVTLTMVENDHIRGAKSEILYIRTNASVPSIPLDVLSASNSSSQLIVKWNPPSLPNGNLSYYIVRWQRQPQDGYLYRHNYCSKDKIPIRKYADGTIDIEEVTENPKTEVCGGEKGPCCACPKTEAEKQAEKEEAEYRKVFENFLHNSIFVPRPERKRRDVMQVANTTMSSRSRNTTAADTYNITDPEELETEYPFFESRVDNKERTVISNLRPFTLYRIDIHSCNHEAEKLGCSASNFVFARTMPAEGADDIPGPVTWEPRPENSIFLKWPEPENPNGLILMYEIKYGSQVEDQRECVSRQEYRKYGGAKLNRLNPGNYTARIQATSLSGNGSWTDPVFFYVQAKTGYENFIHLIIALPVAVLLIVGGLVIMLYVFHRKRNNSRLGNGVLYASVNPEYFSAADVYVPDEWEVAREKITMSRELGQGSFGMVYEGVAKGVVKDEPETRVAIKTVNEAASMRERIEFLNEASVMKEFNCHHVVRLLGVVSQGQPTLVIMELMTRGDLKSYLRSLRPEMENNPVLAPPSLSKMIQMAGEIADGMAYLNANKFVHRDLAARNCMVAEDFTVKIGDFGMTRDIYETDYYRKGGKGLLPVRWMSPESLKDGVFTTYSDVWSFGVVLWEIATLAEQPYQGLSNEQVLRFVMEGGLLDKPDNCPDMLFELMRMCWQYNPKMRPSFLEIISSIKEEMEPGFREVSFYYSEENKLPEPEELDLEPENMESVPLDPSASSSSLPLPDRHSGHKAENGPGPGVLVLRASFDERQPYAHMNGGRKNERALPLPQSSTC
Briefly: Enzyme assay (c), IGFR kinase, Caliper LabChip. The settings on record: 30 nM IGFR kinase, 6 uM ATP, 3 uM peptide mix; read-out: IGFR IC50. It is filed as biochemical.
In the case of `COc1cc(OCC(=O)N(C)C)ccc1Nc1ncc(Cl)c(-c2cnc3c(F)cccn23)n1` [Example 217, 2-[4-[[5-chloro-4-(8-fluoroimidazo[1,2-a]pyridin-3-yl)pyrimidin-2-yl]amino]-3-methoxy-phenoxy]-N,N-dimethyl-acetamide], the IC50 came out at 10 nM.
In the case of `CNC(=O)[C@H](C)Oc1ccc(Nc2ncc(Cl)c(-c3cnc4c(F)cccn34)n2)c(OC)c1` [Example 218, (2S)-2-[4-[[5-chloro-4-(8-fluoroimidazo[1,2-a]pyridin-3-yl)pyrimidin-2-yl]amino]-3-methoxy-phenoxy]-N-methyl-propanamide] it was 7 nM.
In the case of `COc1cc(N(C)CCN(C)C(=O)CO)ccc1Nc1ncc(Cl)c(-c2cnc3c(F)cccn23)n1` [Example 220, N-[2-[4-[[5-chloro-4-(8-fluoroimidazo[1,2-a]pyridin-3-yl)pyrimidin-2-yl]amino]-3-methoxy-N-methyl-anilino]ethyl]-2-hydroxy-N-methyl-acetamide], the IC50 turned out to be 5 nM.
In the case of `COc1cc(N(C)CCN(C)CCO)ccc1Nc1ncc(Cl)c(-c2cnc3c(F)cccn23)n1` [Example 221, 2-[2-[4-[[5-chloro-4-(8-fluoroimidazo[1,2-a]pyridin-3-yl)pyrimidin-2-yl]amino]-3-methoxy-N-methyl-anilino]ethyl-methyl-amino]ethanol] it was 10 nM.
On to `CNC(=O)C1CCN(c2ccc(Nc3ncc(Cl)c(-c4cnc5c(F)cccn45)n3)c(OC)c2)CC1` [Example 222, 1-[4-[[5-chloro-4-(8-fluoroimidazo[1,2-a]pyridin-3-yl)pyrimidin-2-yl]amino]-3-methoxy-phenyl]-N-methyl-piperidine-4-carboxamide], for which the IC50 turned out to be 3 nM.
On to `COc1cc(N(CCO)CCO)ccc1Nc1ncc(Cl)c(-c2cnc3c(F)cccn23)n1` [Example 223, 2-[4-[[5-chloro-4-(8-fluoroimidazo[1,2-a]pyridin-3-yl)pyrimidin-2-yl]amino]-N-(2-hydroxyethyl)-3-methoxy-anilino]ethanol], for which the IC50 is 6 nM.
In the case of `COc1cc(N2CCNCC2=O)ccc1Nc1ncc(Cl)c(-c2cnc3c(F)cccn23)n1` [Example 224, 1-[4-[[5-chloro-4-(8-fluoroimidazo[1,2-a]pyridin-3-yl)pyrimidin-2-yl]amino]-3-methoxy-phenyl]piperazin-2-one] it was 3 nM.
In the case of `COc1cc(N(C)CC(=O)N(C)C)ccc1Nc1ncc(Cl)c(-c2cnc3c(F)cccn23)n1` [Example 225, 2-[4-[[5-chloro-4-(8-fluoroimidazo[1,2-a]pyridin-3-yl)pyrimidin-2-yl]amino]-3-methoxy-N-methyl-anilino]-N,N-dimethyl-acetamide] it was 130 nM; in that of `CNC(=O)CN(C)c1ccc(Nc2ncc(Cl)c(-c3cnc4c(F)cccn34)n2)c(OC)c1` [Example 226, 2-[4-[[5-chloro-4-(8-fluoroimidazo[1,2-a]pyridin-3-yl)pyrimidin-2-yl]amino]-3-methoxy-N-methyl-anilino]-N-methyl-acetamide], 33 nM.
In the case of `COc1cc(N(C)CC(=O)N2CCNCC2)ccc1Nc1ncc(Cl)c(-c2cnc3c(F)cccn23)n1` [Example 227, 2-[4-[[5-chloro-4-(8-fluoroimidazo[1,2-a]pyridin-3-yl)pyrimidin-2-yl]amino]-3-methoxy-N-methyl-anilino]-1-piperazin-1-yl-ethanone] it was 48 nM; in that of `COc1cc(N2CCN(C(C)(C)CO)CC2)ccc1Nc1ncc(F)c(-c2cnc3ccccn23)n1` [Example 228, 2-[4-[4-[(5-fluoro-4-imidazo[1,2-a]pyridin-3-yl-pyrimidin-2-yl)amino]-3-methoxy-phenyl]piperazin-1-yl]-2-methyl-propan-1-ol], 24 nM; in that of `COc1cc(N2CCN(C(C)(C)CO)CC2)ccc1Nc1ncc(C)c(-c2cnc3ccccn23)n1` [Example 229, 2-[4-[4-[(4-imidazo[1,2-a]pyridin-3-yl-5-methyl-pyrimidin-2-yl)amino]-3-methoxy-phenyl]piperazin-1-yl]-2-methyl-propan-1-ol], 20 nM.
For `COc1cc(N2CCN(C(C)(C)CO)CC2)ccc1Nc1ncc(Cl)c(-c2cnn3ccccc23)n1` [Example 230, 2-[4-[4-[(5-chloro-4-pyrazolo[1,5-a]pyridin-3-yl-pyrimidin-2-yl)amino]-3-methoxy-phenyl]piperazin-1-yl]-2-methyl-propan-1-ol], the IC50 was 5 nM.
As for `COc1cc(N2CCN(C(C)(C)CO)CC2)ccc1Nc1ncc(C)c(-c2cnn3ccccc23)n1` [Example 231, 2-[4-[3-methoxy-4-[(5-methyl-4-pyrazolo[1,5-a]pyridin-3-yl-pyrimidin-2-yl)amino]phenyl]piperazin-1-yl]-2-methyl-propan-1-ol], the half-inhibitory concentration (IC50) turned out to be 20 nM.
For `COc1cc(N2CC3CN(CCO)CC(C2)O3)ccc1Nc1ncc(C)c(-c2cnc3ccccn23)n1` [Example 232, 2-[7-[4-[(4-imidazo[1,2-a]pyridin-3-yl-5-methyl-pyrimidin-2-yl)amino]-3-methoxy-phenyl]-9-oxa-3,7-diazabicyclo[3.3.1]nonan-3-yl]ethanol], the half-inhibitory concentration (IC50) was found to be 23 nM.
In the case of `COc1cc(C2CCN(C(C)=O)CC2)ccc1Nc1ncc(C)c(-c2cnn3ccccc23)n1` [Example 233, 1-[4-[3-methoxy-4-[(5-methyl-4-pyrazolo[1,5-a]pyridin-3-yl-pyrimidin-2-yl)amino]phenyl]-1-piperidyl]ethanone] it was 9 nM; in that of `COc1cc(N2CCN(C(C)=O)CC2)ccc1Nc1ncc(C2CC2)c(-c2cnn3ccccc23)n1` [Example 234, 1-[4-[4-[(5-cyclopropyl-4-pyrazolo[1,5-a]pyridin-3-yl-pyrimidin-2-yl)amino]-3-methoxy-phenyl]piperazin-1-yl]ethanone], 31 nM; in that of `COc1cc(N2CCN(C(=O)[C@@H](C)N)CC2)ccc1Nc1ncc(C)c(-c2cnn3ccccc23)n1` [Example 235, (2R)-2-amino-1-[4-[3-methoxy-4-[(5-methyl-4-pyrazolo[1,5-a]pyridin-3-yl-pyrimidin-2-yl)amino]phenyl]piperazin-1-yl]propan-1-one], 13 nM.
Regarding `COc1ccc(N2CCN(C(=O)CN(C)C)CC2)cc1Nc1ncc(C)c(-c2cnn3ccccc23)n1` [Example 236, 2-(dimethylamino)-1-[4-[4-methoxy-3-[(5-methyl-4-pyrazolo[1,5-a]pyridin-3-yl-pyrimidin-2-yl)amino]phenyl]piperazin-1-yl]ethanone], the half-maximal inhibitory concentration (IC50) came out at 49 nM.
With `CNCC(=O)N1CCC(c2ccc(Nc3ncc(C)c(-c4cnn5ccccc45)n3)c(OC)c2)CC1` [Example 237, 1-[4-[3-methoxy-4-[(5-methyl-4-pyrazolo[1,5-a]pyridin-3-yl-pyrimidin-2-yl)amino]phenyl]-1-piperidyl]-2-(methylamino)ethanone], the IC50 is 8 nM.
In the case of `CNCC(=O)N1CCC(c2ccc(Nc3ncc(F)c(-c4cnn5ccccc45)n3)c(OC)c2)CC1` [Example 238, 1-[4-[4-[(5-fluoro-4-pyrazolo[1,5-a]pyridin-3-yl-pyrimidin-2-yl)amino]-3-methoxy-phenyl]-1-piperidyl]-2-(methylamino)ethanone] it was 8 nM.
`COc1cc(C2CCN(C(C)=O)CC2)ccc1Nc1ncc(C#N)c(-c2cnn3ccccc23)n1` [Example 239, 2-[4-(1-acetyl-4-piperidyl)-2-methoxy-anilino]-4-pyrazolo[1,5-a]pyridin-3-yl-pyrimidine-5-carbonitrile]: the half-maximal inhibitory concentration (IC50) is 110 nM.
